From patent publication US6441032B1, “Alpha-(4-Ethoxyphenyl)-N-tert-butylnitrone, pharmaceutical compositions and their medical use” (Centaur Pharmaceuticals, Inc., priority 1997, dated 2002) come the findings set out here.

Test [1] has as its system Lewis rats with MBP-induced EAE. Briefly: Prevention of MBP-induced experimental allergic encephalomyelitis. The note with it: 100 mg/kg b.i.d. oral gavage, day 3 to day 16 post-inoculation. The format is in vivo, Lewis rat. The protocol: Female, Lewis rats of 8 weeks of age (180-250 g) were weighed and then given two intradermal injections (0.1 mL each) of 0.4 mg of M. tuberculin in 0.1 mL incomplete Freunds adjuvant and […] of myelin basic protein in 0.1 mL of saline into the base of the tail. Animals were weighed daily and given a clinical score beginning on Day 8, post inoculation, according to the following criteria:
2.5=Hind limb paralysis and front limb weakness
3.0=Hind and front limb paralysis
4.0=Moribund state or death
On day 3, post-inoculation animals were administered b.i.d either a test compound (100 mg/kg) or 1% methylcellulose vehicle by oral gavage up to and including day 16.

The subject of test [2] is MRL/MpJ Fas^lpr mice. Briefly: Reduction of cognitive deficits in autoimmune mice (T-maze task). Particulars: 100 mg/kg oral gavage daily for 8 to 9 weeks, versus untreated mutant mice. It counts as in vivo, mouse. The protocol:
MRL/MpJfas^lPr (“mutant mice” or “Fas^lPr”) strains of mice have been described as useful models of Lupus due to their autoimmune lymphoproliferative pathology. In particular, the mutant mice show a cognitive deficit at approximately four months of age, which is not observed at two months of age. See, for example, Forster et al., 1988. Behav. Neural Biology, 49, 139-151.
In the experiment, male MRL/MpJ Fas^lpr and normal MRL/MpJ++mice of 8 weeks of age were weighed and administered 100 mg/kg of the test compound (either α-(2-ethoxyphenyl)-N-tert-butylnitrone or α-(4-ethoxyphenyl)-N-cyclohexylnitrone) or 1% methylcellulose vehicle by oral gavage daily for 8 to 9 weeks. At 4 months of age, the mice were tested for avoidance, discrimination, session criteria and acquisition in a one day T-maze task with a maximum of 25 trials. Criteria was met with four of five trials correct with the last two correct trials being consecutive in avoidance and discrimination.

Test [3] has as its system Male Sprague-Dawley rats injected with Aβ(25-35) and ibotenate. Briefly: Reduction of cognitive defects due to Aβ-peptide/ibotenate (Morris water maze). The format is in vivo, Sprague-Dawley rat. Particulars: 10 mgl/k by oral gavage daily. The text has this:
The procedures employed in this example are similar to those described in Dornan et al. NeuroReport 5, 165-168 (1993). Male Sprague-Dawley rats (200-300 g) were weighed and given 10 mgl/k of α-(2-ethoxyphenyl)-N-tert-butylnitrone or 1% methylcellulose by oral gavage. One hour later, the rats were stereotaxically injected into the CA1 region of their hippocampus with 8 nmol of Aβ(25-35) and 6 nmol of ibotenate per side (coordinates from bregma −3.6=AP, ±2.2=ML, −3.0=DV from the top of the dura). Controls were injected with PBS (pH 7.4). All injections were 1.5 μL in volume. The animals receiving PBS were orally dosed with 1% methylcellulose. Oral dosing continued daily until the end of the Morris water maze testing.
Nine to eleven days following injection, animals were tested in a Morris water maze task to measure spatial memory and learning. Animals were given three days of testing with four to six trials per day. The last trial on the fourth day was a probe trial where the platform was removed and time in quadrant and annulae crossings were determined. Following the behavioral testing, animals were perfused with 10% neutral formalin. The brain was post-fixed for 1 week in 10% formalin and then sliced for histological evaluation. Image analysis of cresyl violet staining was used to compare the neuronal loss (lesion volume) in the hippocampus between groups.

As for `CCOc1cc(C=[N+]([O-])C(C)(C)C)ccc1OC` [Example 3, α-(3-Ethoxy-4-methoxyphenyl)-N-tert-butylnitrone], the “CNS inflammatory deficit in acute EAE animals” value (“CNS inflammatory deficit” below) in test [1] is given as “reduced the CNS inflammatory deficit”. On the same count and under the same terms, next, `CCOc1ccc(C=[N+]([O-])C(C)(C)C)cc1` [Example 4, α-(4-Ethoxyphenyl)-N-tert-butylnitrone]: “did not significantly reduce the CNS inflammatory deficit”; `COc1cc(C=[N+]([O-])C(C)(C)C)ccc1OCc1ccccc1` [Example 5, α-(4-Benzyloxy-3-methoxyphenyl)-N-tert-butylnitrone]: “did not significantly reduce the CNS inflammatory deficit”. With `CCOc1ccccc1C=[N+]([O-])C(C)(C)C` [Example 7, α-(2-Ethoxyphenyl)-N-tert-butylnitrone], the “CNS inflammatory deficit” value in test [1] is recorded as “did not significantly reduce the CNS inflammatory deficit”. Further, in test [2], the “acquisition in T-maze task” value is “reduced acquisition values” and the “avoidance in T-maze task” value is “acquired avoidance skills earlier”. The “Aβ peptide/ibotenate-induced learning deficit” value in test [3] is on record as “reduced the Aβ peptide/ibotenate-induced learning deficit”. `CCCC[N+]([O-])=Cc1ccc(OCC)cc1` [Example 10, α-(4-ethoxyphenyl)-N-n-butylnitrone]: the “CNS inflammatory deficit” value in test [1] is reported as “did not significantly reduce the CNS inflammatory deficit”.

Regarding `CCOc1ccc(C=[N+]([O-])C2CCCCC2)cc1` [Example 11, α-(4-Ethoxyphenyl)-N-cyclohexylnitrone], the “CNS inflammatory deficit” value in test [1] is “reduced the CNS inflammatory deficit”. Further, in test [2], the “acquisition in T-maze task” value is given as “reduced acquisition values” and the “avoidance in T-maze task” value is listed as “acquired avoidance skills earlier”. With `CCOc1ccc(C=[N+]([O-])C2CCCCC2)cc1OC` [Example 15, α-(4-Ethoxy-3-methoxyphenyl)-N-cyclohexylnitrone], the “CNS inflammatory deficit” value in test [1] is on record as “did not significantly reduce the CNS inflammatory deficit”. The same measure, in the same setting: next, `CCOc1cc(C=[N+]([O-])C(C)C)ccc1OC` [Example 17, α-(3-Ethoxy-4-methoxyphenyl)-N-isopropylnitrone]: “reduced the CNS inflammatory deficit”; `CCCCCCOc1ccc(C=[N+]([O-])C2CCCCC2)cc1OCC` [Example 22, α-(3-Ethoxy-4hexyloxyphenyl)-N-cyclohexylnitrone]: “reduced the CNS inflammatory deficit”. On the same count and under the same terms, next, `CCCCCCCCOc1ccc(C=[N+]([O-])C(C)(C)C)c(F)c1` [Example 29, α-(2-Fluoro-4-octyloxyphenyl)-N-tert-butylnitrone]: “did not significantly reduce the CNS inflammatory deficit”; `CC(C)(C)[N+]([O-])=Cc1ccc(OCc2ccccc2)cc1` [Example 41, α-(4-Benzyloxyphenyl)-N-tert-butylnitrone]: “reduced the CNS inflammatory deficit”. Same read-out and setting: next, `[O-][N+](=Cc1ccc(OCc2ccccc2)cc1)C1CCCC1` [Example 42, α-(4-Benzyloxyphenyl)-N-cyclopentylnitrone]: “reduced the CNS inflammatory deficit”; `CCOc1cc(C=[N+]([O-])C(C)(C)CC(C)(C)C)ccc1OC` [Example 45, α-(3-Ethoxy-4-methoxyphenyl)-N-tert-octylnitrone]: “reduced the CNS inflammatory deficit”.
